{
  "source": "EPA's ToxValDB 9.5 (doi:10.2903/j.efsa.2017.4980)",
  "key": {"[1]": {"tested_on": "Typhlodromus pyri", "assay": "LR50; higher = less toxic", "conditions": "not reported; mortality"}, "[2]": {"tested_on": "Neomysis kadiakensis"}, "[3]": {"tested_on": "Canidae", "conditions": "oral, Dog Other, organ weight"}, "[4]": {"tested_on": "Colinus virginianus"}, "[5]": {"tested_on": "Landoltia sp.", "conditions": "chronic/long-term; duration: 14 days"}, "[6]": {"tested_on": "Anas platyrhynchos", "conditions": "reproductive"}, "[7]": {"tested_on": "Apis mellifera", "conditions": "acute, mortality"}, "[8]": {"tested_on": "Tagia sp.", "conditions": "acute; duration: 14 days; mortality"}, "[9]": {"tested_on": "Rattus norvegicus"}, "[10]": {"tested_on": "Oncorhynchus mykiss"}},
  "data": [
    {"smiles": "CCC(C)(NC(=O)c1cc(Cl)c(C)c(Cl)c1)C(=O)CCl", "note": "(configuration not stated) [Zoxamide]", "values": [
      {"measurement": "LR50", "setting": "[1]", "result": "> 300", "unit": "g/ha"},
      {"measurement": "LC50", "setting": "[2]; acute, duration: 96 hours, mortality", "result": 0.076, "unit": "mg/L"},
      {"measurement": "NOEC", "setting": "[2]; chronic/long-term, duration: 27 days", "result": 0.0072, "unit": "mg/L"},
      {"measurement": "NOAEL", "setting": "[3]; chronic, duration: 1 years", "result": 50, "unit": "mg/kg-day"},
      {"measurement": "NOAEL", "setting": "[3]; subchronic, duration: 90 days", "result": 50, "unit": "mg/kg-day"},
      {"measurement": "LD50", "setting": "[4]; acute, oral, mortality", "result": "> 2000", "unit": "mg/kg-day"},
      {"measurement": "NOEC", "setting": "[4]; reproduction developmental", "result": 171, "unit": "mg/kg-day"},
      {"measurement": "NOEC", "setting": "[5]", "result": 0.009, "unit": "mg/L"},
      {"measurement": "NOEC", "setting": "[6]", "result": 123, "unit": "mg/kg-day"},
      {"measurement": "LD50", "setting": "[7]; dermal", "result": "> 100", "unit": "µg/piece"},
      {"measurement": "LD50", "setting": "[7]; oral, unspecified", "result": "> 33", "unit": "µg/piece"},
      {"measurement": "LC50", "setting": "[8]", "result": "> 1070", "unit": "mg/kg"},
      {"measurement": "NOEC", "setting": "[8]", "result": 66.7, "unit": "mg/kg"},
      {"measurement": "LD50", "setting": "[9]; acute, oral, mortality", "result": "> 5000", "unit": "mg/kg-day"},
      {"measurement": "NOAEL", "setting": "[9]; reproduction developmental, body weight", "result": 360, "unit": "mg/kg-day"},
      {"measurement": "LC50", "setting": "[10]; acute, duration: 96 hours, oral, feed, mortality", "result": 0.16, "unit": "mg/L"},
      {"measurement": "NOEC", "setting": "[10]; chronic/long-term, duration: 95 days", "result": 0.00348, "unit": "mg/L"}
    ]}
  ]
}
